Where two headings read alike, the source gives them in different places.
Columns and labels:
[1] = system: MDA-kb2 mammary gland breast cancer cell line; details: human, 24 h
Experimental: For the MDA-kb2 assay, MDA-kb2 mammary gland breast cancer cell line was maintained in L-15 media (Gibco) supplemented with 10% FBS, 100 U/mL penicillin, 100 μg/mL streptomycin, and 0.25 μg/mL amphotericin B at 37° C., without CO2. For experiments, cells were plated at 1.0×10^4 cells (50% confluence) per well in 100 μL of medium in 96-well plates. When cells were attached (after 6 hours), medium was removed and replaced with dosing medium containing 10% charcoal stripped FBS.
A 5α-Androstan-17β-ol-3-one (DHT) stock solution was prepared at 1,000× in ethanol. Each ARE tested was prepared in DMSO. Dosing medium was prepared at the time of treatment by serial diluting stock solution into medium. Ethanol concentrations in media never exceeded 0.1%. […] Negative control wells contained 100 μL medium/well with 1 μL of ethanol/mL of medium and an appropriate amount of DMSO. Each plate also contained 1.0 nM DHT with an ARE or without an ARE as a positive control. Cells were incubated 24 hours at 37° C. without CO2.
To assess for cell viability, cells were first visually examined under a phase-contrast microscope to record cell confluence, morphological changes, and presence of drug crystallization as well as to observe signs of cytotoxity such as, e.g., detachment, vacuolization, membrane degradation, or lack of phase brightness. After microscopic inspection, a Trypan Blue exclusion assay was performed to assess cell viability and cell number for each well. Each well was washed with 0.5 mL volume of PBS. 30 µL of Trypan Blue was added to each well for 5-10 minutes. Total cell number and total viable cell number will be counted from 1 number of fields per well, in triplicate.

[2] = system: MDA-kb2 breast cancer cell; experiment: MDA-kb2 cell viability in Example 13; format: cell-based
[3] = molecular target: T1, androgen receptor (AR) (Homo sapiens, UniProt P10275); experiment: Keratinocyte AR luciferase reporter gene assay (Example 10); format: cell-based; details: 24 h, read-out: Gene Activity Reduction
T1 construct: human keratinocytes transfected with an AR luciferase reporter gene; endogenous in cells; host or cells: normal human adult primary epidermal keratinocytes (ATCC PCS-200-011)
T1 sequence (P10275 1-920): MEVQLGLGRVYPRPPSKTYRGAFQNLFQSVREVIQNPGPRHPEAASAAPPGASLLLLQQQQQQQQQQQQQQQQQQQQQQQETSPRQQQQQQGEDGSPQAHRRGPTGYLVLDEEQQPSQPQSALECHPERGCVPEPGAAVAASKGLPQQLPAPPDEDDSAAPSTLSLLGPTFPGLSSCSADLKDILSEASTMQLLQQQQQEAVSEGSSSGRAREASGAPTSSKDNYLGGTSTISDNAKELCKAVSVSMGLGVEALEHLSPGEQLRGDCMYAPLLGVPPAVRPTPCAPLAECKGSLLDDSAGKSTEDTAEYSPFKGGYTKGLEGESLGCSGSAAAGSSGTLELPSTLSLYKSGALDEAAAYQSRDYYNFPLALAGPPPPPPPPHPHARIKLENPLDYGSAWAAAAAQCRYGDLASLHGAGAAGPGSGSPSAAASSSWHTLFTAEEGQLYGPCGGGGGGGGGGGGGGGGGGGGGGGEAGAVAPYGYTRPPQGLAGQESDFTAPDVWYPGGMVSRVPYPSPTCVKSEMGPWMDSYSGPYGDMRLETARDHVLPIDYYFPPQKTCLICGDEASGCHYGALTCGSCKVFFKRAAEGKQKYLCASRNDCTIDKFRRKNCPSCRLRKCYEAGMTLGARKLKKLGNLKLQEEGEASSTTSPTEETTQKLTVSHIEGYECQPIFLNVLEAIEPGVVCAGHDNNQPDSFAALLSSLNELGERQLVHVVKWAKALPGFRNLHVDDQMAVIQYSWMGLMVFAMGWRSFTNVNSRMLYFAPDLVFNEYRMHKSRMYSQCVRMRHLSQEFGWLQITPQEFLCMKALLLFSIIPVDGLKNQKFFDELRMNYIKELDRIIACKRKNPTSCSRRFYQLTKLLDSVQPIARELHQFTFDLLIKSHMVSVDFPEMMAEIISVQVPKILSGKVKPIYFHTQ
Experimental: Each ARE tested was prepared in DMSO. […] Ethanol concentrations in media never exceeded 0.1%.
To assess ARE-mediated inhibition, an AR luciferase assay was performed. After washing cells with 1×PBS, 20 μL lysis buffer (25 mM Tris/phosphate, 4 mM EGTA, 1% Triton, 10% glycerol, 2 mM DTT) was added per well, incubated for 5 minutes with gentle shaking and store at −80° C. On the day of assay, the plates were thawed to ambient temperature and 80 μL of assay buffer (25 mM glycylglycine, 15 mM MgCl2. 5 mM ATP, 0.1 mg/ml BSA) was added to each well. Plates are then processed on a microplate reader (POLARstar Omega) by injecting 100 μL of 1 mM D-luciferin per well, followed by chemiluminescence measurement of 3 seconds at onset of injection. Luciferase activity was determined, measured, and normalized to Relative Light Units (RLU). AR reporter gene activity reduction values were calculated as follows: AR reporter gene activity=1−(average signal (treatment group)/average signal (treatment group without drug).

Compound: CC12CCC(=O)C=C1C[C@@H](SC(=O)CC13CC4CC(CC(C4)C1)C3)C1C2CCC2(C)C1CC[C@@]21CCC(=O)O1 (stereo partly shown) [SPG-003]
- Cell Viability ([1]; 0.1 μM): 98%
- Cell Viability ([1]; 1 μM): 99%
- Cell Viability ([1]; 3 μM): 98%
- Cell Viability ([1]; 10 μM): 98%
- Cell Viability ([2]; MDA-kb2, 6 μM): 80%
- Cell Viability ([2]; MDA-kb2, 10 μM): 50%
- inhibition at 0.1 µM [3]: 21%
- inhibition at 1 µM [3]: 31%
- inhibition at 3 µM [3]: 50%
- inhibition at 10 µM [3]: 93%

— patent US12319681B2, “Tripartite androgen receptor eliminators, methods and uses thereof” (SPG Therapeutics, Inc., priority 2017, dated 2025)
